Laboratory results taken from PMC3869945, “Synthetic 1,4-Pyran Naphthoquinones Are Potent Inhibitors of Dengue Virus Replication” (PLoS ONE, 2013).

What was measured:
[1] = molecular target: T1, DENV-2 NS3 (full-length, NS3FL) ATPase activity (Dengue virus type 2, UniProt P14340); assay: Colorimetric NTPase (ATPase) assay with purified full-length NS3; format: biochemical; conditions: for NS3 ATPase inhibition, statistical difference from control (unpaired t-test, p < 0.05): screening in duplicate; for IC50: compound ≤ 100 μM
T1 construct: The fragment corresponding to amino acids 1 to 619 of NS3FL was amplified; 10xHis (N, cleaved yes); ubiquitin (N, cleaved yes); made in house; host or cells: E. coli Rosetta (λDE3)
Method: The ATPase activity of NS3 was determined by measuring the extension of hydrolysis of NTP to NDP and Pi. The amount of free inorganic phosphate released was calculated by the hydrolysis of ATP using a standard curve with known Pi concentrations, and the reaction was measured at 660 nm using SpectraMax M5 spectrophotometer (Molecular Devices). Compounds were diluted from 20 mM or 40 mM stock solution prepared in 100% DMSO. These compounds were diluted to a final concentration of 10% DMSO in the assay buffer. The compound screening assay was performed in 96-well plate, and in each well reaction containing 600 nM NS3FL, 40 mM Tris-HCl (pH 7.5), 5 mM MgCl2, 5 mM DTT, 0.1M KCl were pre-incubated with 50µM of compounds (or varying concentrations of the compound) for 10 min at 30 °C. The kinetic activity was initiated by the addition of 1 mM of ATP substrate and incubation for 10 min at 30°C. Reactions were stopped with addition of 20 μL 50% TCA, followed by 80 μL of ammonium molibidate solution and 40 μL of reducing agent. Absorbance was read and data were processed on Sigma Plot Version 10.0. The initial reaction velocities (Vi) of product formation were determined from progress curves using the linear regression method and data converted to residual activity and/or calculate IC50% assuming Michelis-Mentem kinetics. The experiments were carried out in duplicate and the statistical difference between the inhibition reaction in the presence of each compound and the control were evaluated by unpaired t-test analysis.
Once the ATPase activity was confirmed after purification process, we used the colorimetric assay developed by Fiske and Subbarow for the screening of compounds, which was performed using 600 nM of NS3FL in reactions containing 40 mM Tris-HCl (pH 7.5), 5 mM DTT, 100 mM KCl, 5 mM MgCl2, and 1 mM ATP and 50 µM of the pyran naphthoquinones 8, 9 and 10. […] The percentage of NS3FL ATPase activity inhibition varied from 15 to 50% of the untreated control.

Vero cells = assay: Cytotoxicity assay, neutral red staining (confirmed with CellTiter Blue); format: cell-based, African Green Monkey; conditions: for Viability of uninfected host cell cultures: up to 100 µM, 72 h, neutral red
Method: Cell toxicity of all compounds used in this work was tested in Vero and HepG2 cells by Neutral Red dye exclusion assay. Briefly, cells were cultured with varying concentrations of each compound and incubated for 72 hours at 37°C. After this period, the cells were incubated with 0.05% neutral red solution for 3 hours, washed with 1X PBS and fixed with 20% paraformaldehyde for 5 min. Cells were washed again and the incorporated dye was extracted with a 50% methanol and 1% acetic acid solution for 20 min. Plates were read at 490nm in a ELISA reader. Results obtained with the neutral red dye exclusion assay were confirmed using the CellTiter Blue Cell Viability Kit (Promega, Madison - USA) according to manufacturer’s instructions.
The compounds were initially screened regarding their toxicity level after culturing Vero and HepG2 cells with the effective concentration of each compound. After 72h, cellular viability was analyzed by neutral red staining and confirmed by the conversion of redox resazurin into fluorescent resorufin.

DENV-2 [2] = assay: Virus replication inhibition assay in Vero cells, cell-free viral RNA by qPCR; format: cell-based; conditions: for % of Inhibition of DENV-2 Replication (qPCR): DENV-2 infected Vero cells, m.o.i 0.1, 72 h, highest non-toxic concentration (μM, in parentheses after label): 8d 25, 9b and 9c 100, 10a and 10b 12.5, Ribavirin 200; for Inhibition of DENV-2 replication (in words): highest non-toxic concentration; for IC50: qPCR, 100 to 0.4 μM dose response, Hill regression
Method: In order to test the anti-viral effect of the compounds used in this work, monolayers of Vero cells were inoculated with DENV-2 at an m.o.i of 0.1 for 2 hours. After this period, cells were washed with 1X PBS to remove unbound viruses and fresh media was added with the highest non-cytotoxic concentration of the compounds. Infected cells were also cultured with culture medium or 1% DMSO, as negative controls, or with 200μM of Ribavirin® as reference drug for DENV replication inhibition. After 72 h, culture supernatants were collected and viral RNA was extracted using the QIAamp Viral RNA Mini Kit (Qiagen – Hamburg, Germany), according to manufacturer’s instructions. The synthesis of cDNA was performed with random hexamers as primers and the High Capacity cDNA kit (LifeTechnologies – Carlsbad, USA) according to manufacturer’s instructions. The detection and quantification of the cell free viral genomic RNA was performed by qPCR using specific primers and probe hybridizing in the protein E gene region as already described. qPCR conditions were as follow: a reaction mixture consisting of 12.5μL of TaqMan (Invitrogen – Carlsbad, USA), 50 pmol of each primer, 9 pmol of the probe and 7μL of the cDNA reaction to a final volume of 25μL was submitted to 40 cycles of amplification in a ABI PRISM 7000 Detection System (LifeTechnologies – Carlsbad, USA) using 60°C annealing temperature. Amplification results were analyzed using the 7000 SDS software (LifeTechnologies – Carlsbad, USA) and the threshold parameter was manually adjusted.
The efficiency of the qPCR was calculated based on the slope of a Ct versus Template Concentration curve. To generate the calibration curve, a purified stock of DENV-2 containing 10^5 Plaque forming unities/ml was serially diluted and used to RNA extraction followed by cDNA synthesis, which was in turn used as template for the qPCR. A value of -3.30 was achieved, which represents an efficiency close to 100%. Based on this efficiency for the qPCR, the percentage of inhibition of DENV replication was calculated by the ΔΔCT method.
A dose response curve was also performed with the compounds that inhibited DENV replication by at least 30%. For this purpose, DENV-2-infected Vero cells were cultured with the selected compounds at concentrations varying from 100 to 0.4 μM and virus replication was measured by qPCR as above. IC50 values were obtained by the Hill’s regression curve using the software Prism 5. Experiments were always performed in triplicates. All results were confirmed in HepG2 cells by qPCR and by TCID50 in Vero cells.

[3] = molecular target: T2, DENV-2 NS3 protease domain linked to the NS2B cofactor (Dengue virus type 2, UniProt P14340); assay: NS3 protease inhibition assay with NS2B cofactor; format: biochemical; conditions: in the presence of the NS2b cofactor, data not shown
T2 construct: the NS3 protease domain linked to the NS2B cofactor was purified; made in house
Method: We also evaluated whether the compounds were able to suppress the proteolytic activity of DENV-2 NS3. Several studies have shown that the NS2B cofactor is required by the protease domain to form a proteolytic active domain [47, 48]. Therefore, the NS3 protease domain linked to the NS2B cofactor was purified and the inhibition assay was performed as described by Leung and co-workers.

DENV-2 [4] = assay: Tissue Culture Infectious Dose (TCID50) confirmation of replication inhibition in Vero cells; format: cell-based; conditions: DENV-2 infected Vero cells
Method: Viruses used in this work include a DENV-2 prototype 16681 and a Brazilian isolate (44/02 - from Fundação Oswaldo Cruz – RJ - Brazil). Virus stocks were generated by infecting Vero cells at an 80% confluence with a multiplicity of infection (m.o.i) of 0.1. Infected cells were incubated at 37 °C for 5-7 days and inspected every day until the cytopathic effect was clearly observed. Supernatants were then collected, centrifuged at 1,200 x g for 10 min. to clear cellular debris and stored at -70°C until use. The titter of viral stocks was measured by TCID(50)% using serial dilutions of 10^1 to 10^7 of the viral stocks inoculated into Vero cells. The viral titter was calculated according with Reed and Munch.
A dose response curve was also performed with the compounds that inhibited DENV replication by at least 30%. For this purpose, DENV-2-infected Vero cells were cultured with the selected compounds at concentrations varying from 100 to 0.4 μM and virus replication was measured by qPCR as above. […]
To analyze the impact of the selected compounds on DENV replication, cells were infected and cultured with the highest non-toxic concentration of each compound and virus replication was analyzed by qRT-PCR. […] The differences in the percentage of inhibition when viral replication was measured by qRT-PCR and TCID50 were probably due to the differences in the sensibility of these assays. […]

T1 sequence (P14340 1476-2093): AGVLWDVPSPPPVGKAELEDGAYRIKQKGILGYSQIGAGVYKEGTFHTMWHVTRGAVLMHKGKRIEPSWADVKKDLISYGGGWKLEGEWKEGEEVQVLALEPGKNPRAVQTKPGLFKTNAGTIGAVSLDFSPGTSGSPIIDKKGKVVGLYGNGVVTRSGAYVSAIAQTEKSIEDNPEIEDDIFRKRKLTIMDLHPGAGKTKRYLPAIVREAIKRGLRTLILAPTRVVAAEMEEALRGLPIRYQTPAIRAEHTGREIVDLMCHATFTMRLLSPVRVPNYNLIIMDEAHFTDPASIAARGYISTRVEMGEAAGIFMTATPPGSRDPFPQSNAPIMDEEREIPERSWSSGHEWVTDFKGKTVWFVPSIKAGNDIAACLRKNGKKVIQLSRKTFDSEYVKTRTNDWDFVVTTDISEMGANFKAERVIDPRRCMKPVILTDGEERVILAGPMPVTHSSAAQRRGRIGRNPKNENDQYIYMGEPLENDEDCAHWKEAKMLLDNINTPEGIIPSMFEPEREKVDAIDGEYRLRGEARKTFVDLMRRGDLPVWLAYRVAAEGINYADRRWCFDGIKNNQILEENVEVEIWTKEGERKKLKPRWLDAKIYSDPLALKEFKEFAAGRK
T2 sequence (P14340 1476-1653): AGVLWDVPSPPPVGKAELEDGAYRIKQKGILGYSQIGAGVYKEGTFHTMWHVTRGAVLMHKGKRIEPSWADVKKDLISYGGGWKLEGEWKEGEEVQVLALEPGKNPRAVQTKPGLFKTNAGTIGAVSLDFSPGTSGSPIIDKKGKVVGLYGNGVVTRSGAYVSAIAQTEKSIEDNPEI
T2 sequence (P14340 1398-1437): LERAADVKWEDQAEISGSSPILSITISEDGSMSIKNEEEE

## Cc1ccc(C2CC(c3ccc([N+](=O)[O-])cc3)C3=C(O2)c2ccccc2C(=O)C3=O)cc1 (stereo not drawn) [8b]
[1]; 50 µM compound
  NS3 ATPase inhibition, statistical difference from control (unpaired t-test, p < 0.05): statistically different

## Cc1ccc(C2CC(c3cccs3)C3=C(O2)c2ccccc2C(=O)C3=O)cc1 (stereo not drawn) [8c]
Vero cells; concentration as low as 0.4 μM
  Toxicity to the cell culture: highly toxic
[1]; 50 µM compound, 600 nM NS3FL, 1 mM ATP
  Reduction of the NS3 ATPase activity: two-fold reduction
[1]; 50 µM compound
  NS3 ATPase inhibition, statistical difference from control (unpaired t-test, p < 0.05): statistically different

## Cc1ccc(C2CC(c3ccccc3)C3=C(O2)c2ccccc2C(=O)C3=O)cc1 (stereo not drawn) [8d]
DENV-2 [2]
  % of Inhibition of DENV-2 Replication (qPCR): 0%
DENV-2 [2]; Vero cells
  Inhibition of DENV-2 replication (in words): did not inhibit DENV-2 replication

## Cc1ccc(C2CC(c3ccc([N+](=O)[O-])cc3)C3=C(O2)C(=O)c2ccccc2C3=O)cc1 (stereo not drawn) [9b]
Vero cells
  Viability of uninfected host cell cultures: did not reduce the viability
[3]
  Effect against the NS3 protease activity: did not observe any effect
[1]; 600 nM NS3FL, 1 mM ATP
  IC50: > 100000 nM
DENV-2 [4]; Dengue virus, DENV2, Vero
  inhibition at 100 µM: 99.8%
DENV-2 [2]
  % of Inhibition of DENV-2 Replication (qPCR): 99.0%
DENV-2 [2]; Vero cells
  IC50: 1640 nM

## Cc1ccc(C2CC(c3ccc([N+](=O)[O-])cc3)C3=C(O2)C(=O)c2ccccc2C3=O)cc1 (stereo not drawn) [9c]
Vero cells
  Viability of uninfected host cell cultures: did not reduce the viability
[3]
  Effect against the NS3 protease activity: did not observe any effect
[1]; 600 nM NS3FL, 1 mM ATP
  IC50: 80000 ± 12000 nM
[1]; 50 µM compound
  NS3 ATPase inhibition, statistical difference from control (unpaired t-test, p < 0.05): statistically different
DENV-2 [4]; 100 μM
  % of Inhibition of DENV-2 Replication (TCID50): 99.99%
DENV-2 [2]
  % of Inhibition of DENV-2 Replication (qPCR): 99.6%
DENV-2 [2]; DENV-2 replication in Vero cells
  IC50 of 9c fold lower than that of compound 9b: 5.3 fold
DENV-2 [2]; Vero cells
  Concentration to inhibit 50% of DENV replication, fold lower than aglycon analogue of teicoplanin: 20 fold
  IC50: 311 nM

## O=C1C2=C(C(=O)c3ccccc31)C(c1ccccc1)C1=C(O2)C(=O)c2ccccc2C1=O [10a]
[1]; 50 µM compound
  NS3 ATPase inhibition, statistical difference from control (unpaired t-test, p < 0.05): statistically different
DENV-2 [2]
  % of Inhibition of DENV-2 Replication (qPCR): 0%

## O=C1C2=C(C(=O)c3ccccc31)C(c1ccc([N+](=O)[O-])cc1)C1=C(O2)C(=O)c2ccccc2C1=O [10b]
[1]; 50 µM compound
  NS3 ATPase inhibition, statistical difference from control (unpaired t-test, p < 0.05): statistically different
DENV-2 [2]
  % of Inhibition of DENV-2 Replication (qPCR): 0%
DENV-2 [2]; Vero cells
  Inhibition of DENV-2 replication (in words): did not inhibit DENV-2 replication

## NC(=O)c1ncn([C@@H]2O[C@H](CO)[C@@H](O)[C@H]2O)n1 [Ribavirin, reference compound]
DENV-2 [2]
  % of Inhibition of DENV-2 Replication (qPCR): 78.00%
